Assay results published in patent publication US10669242B2 (priority 2016, dated 2020).

target: T1, recombinant glucosyltransferase domain of C. difficile Toxin B/TcdB (Clostridioides difficile, UniProt P18177); assay: biochemical; conditions: not given
T1 construct: 6-His (C); purchased R&D Systems 6246-GT
T1 sequence (P18177 1-543): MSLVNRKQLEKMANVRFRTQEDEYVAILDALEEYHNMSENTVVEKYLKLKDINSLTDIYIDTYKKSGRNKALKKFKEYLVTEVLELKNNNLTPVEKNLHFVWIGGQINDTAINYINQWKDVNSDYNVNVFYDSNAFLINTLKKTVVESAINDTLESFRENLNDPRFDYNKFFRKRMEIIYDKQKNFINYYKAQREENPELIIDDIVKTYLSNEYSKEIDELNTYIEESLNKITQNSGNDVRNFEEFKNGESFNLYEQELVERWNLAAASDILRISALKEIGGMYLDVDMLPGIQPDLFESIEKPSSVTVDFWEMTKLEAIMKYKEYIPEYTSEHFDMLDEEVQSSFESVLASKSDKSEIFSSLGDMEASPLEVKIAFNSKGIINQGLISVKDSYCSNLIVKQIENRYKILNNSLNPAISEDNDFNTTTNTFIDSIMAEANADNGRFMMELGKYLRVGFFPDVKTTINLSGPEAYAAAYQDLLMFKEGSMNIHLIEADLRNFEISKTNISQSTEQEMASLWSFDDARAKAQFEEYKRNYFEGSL

First: Cc1ccc(NC(=O)[C@H]2CC[C@H](CN3C(=O)c4ccc(Cl)cc4NC(=O)[C@H]3Cc3ccccn3)CC2)nc1 [Example 4bx, (1R,4r)-4-(((R)-8-chloro-2,5-dioxo-3-(pyridin-2-ylmethyl)-2,3-dihydro-1H-benzo[e][1,4]diazepin-4(5H)-yl)methyl)-N-(5-methylpyridin-2-yl)cyclohexanecarboxamide]
Second: O=C(N[C@H]1CC[C@H](CN2C(=O)c3ccc(Cl)cc3NC(=O)[C@H]2Cc2ccccn2)CC1)c1ccccn1 [Example 26j]
The IC50 of the first is lower: < 100 nM for the first, 100 to 999 nM for the second. The first is the more potent here.

`Cn1cc(C(=O)N2CCC(CN3C(=O)c4ccc(Cl)cc4NC(=O)[C@H]3Cc3ccccn3)CC2)c2ncccc21` [Example 43a, (R)-8-Chloro-4-((1-(1-methyl-1H-pyrrolo[3,2-b]pyridine-3-carbonyl)piperidin-4-yl)methyl)-3-(pyridin-2-ylmethyl)-3,4-dihydro-1H-benzo[e][1,4]diazepine-2,5-dione] and `Cn1cc(-c2cc(CN3C(=O)c4ccc(Cl)cc4NC(=O)[C@H]3Cc3ccccn3)ccc2C(=O)O)cn1` [Example 8u, (R)-4-((8-chloro-2,5-dioxo-3-(pyridin-2-ylmethyl)-2,3-dihydro-1H-benzo[e][1,4]diazepin-4(5H)-yl)methyl)-2-(1-methyl-1H-pyrazol-4-yl)benzoic acid] fall in the same range of IC50: 1000 to 10000 nM for the first, 1000 to 10000 nM for the second.

`COc1ccc2c(c1)NC(=O)[C@@H](Cc1ccc(Cl)c(Cl)c1)N(Cc1ccc(C(=O)Nc3ccccn3)cc1)C2=O` [Example 4l, (R)-4-((3-(3,4-dichlorobenzyl)-8-methoxy-2,5-dioxo-2,3-dihydro-1H-benzo[e][1,4]diazepin-4(5H)-yl)methyl)-N-(pyridin-2-yl)benzamide] and `COc1ccc(NC(=O)c2ccc(CN3C(=O)c4ccc(Cl)cc4NC(=O)[C@H]3Cc3ccccn3)cc2)nn1` [Example 4bm, (R)-4-((8-chloro-2,5-dioxo-3-(pyridin-2-ylmethyl)-2,3-dihydro-1H-benzo[e][1,4]diazepin-4(5H)-yl)methyl)-N-(6-methoxypyridazin-3-yl)benzamide] cannot be ordered by IC50: < 100 nM for the first, < 100 nM for the second.

`Cc1cnc(NC(=O)c2ccc(CN3C(=O)c4ccc(Cl)cc4NC(=O)[C@H]3Cc3ccccn3)cc2)cn1` [Example 5t, (R)-4-((8-chloro-2,5-dioxo-3-(pyridin-2-ylmethyl)-2,3-dihydro-1H-benzo[e][1,4]diazepin-4(5H)-yl)methyl)-N-(5-methylpyrazin-2-yl)benzamide] and `COc1cnc(NC(=O)c2ccc(CN3C(=O)c4ccc(Cl)cc4NC(=O)[C@H]3Cc3ccccn3)cc2)nc1` [Example 5a, (R)-4-((8-chloro-2,5-dioxo-3-(pyridin-2-ylmethyl)-2,3-dihydro-1H-benzo[e][1,4]diazepin-4(5H)-yl)methyl)-N-(5-methoxypyrimidin-2-yl)benzamide] cannot be ordered by IC50: < 100 nM for the first, < 100 nM for the second.

First: COCCC(=O)Nc1cc(CN2C(=O)c3ccc(Cl)cc3NC(=O)[C@H]2Cc2ccccn2)ccc1C(=O)O [Example 22e]
Second: O=C(O)c1ccc(CN2C(=O)c3ccc(Cl)cc3NC(=O)[C@@H]2Cc2ccccn2)cc1 [Example 1f]
The IC50 of the first is higher: 1000 to 10000 nM for the first, 100 to 999 nM for the second.

First: O=C(O)c1ccc(CN2C(=O)c3ccc([N+](=O)[O-])cc3NC(=O)[C@H]2Cc2cccnc2)cc1 [Example 2i]
Second: O=C(O)c1ccc(CN2C(=O)c3ccc(Cl)cc3NC(=O)[C@H]2Cc2ccccn2)cc1 [Example 1a, (R)-4-((8-Chloro-2,5-dioxo-3-(pyridin-2-ylmethyl)-2,3-dihydro-1H-benzo[e][1,4]diazepin-4(5H)-yl)methyl)benzoic Acid]
The IC50 of the first is higher: 1000 to 10000 nM for the first, 100 to 999 nM for the second. The second is the more potent here.

First: O=C(O)c1ccc(CN2C(=O)c3ccc(Cl)cc3NC(=O)[C@H]2Cc2ccccn2)cc1-c1ccc2c(c1)OCO2 [Example 8c, (R)-2-(benzo[d][1,3]dioxol-5-yl)-4-((8-chloro-2,5-dioxo-3-(pyridin-2-ylmethyl)-2,3-dihydro-1H-benzo[e][1,4]diazepin-4(5H)-yl)methyl)benzoic acid]
Second: O=C(Nc1ccccn1)c1ccc(CN2C(=O)c3ccc(Cl)cc3NC(=O)[C@H]2Cc2ccccn2)cc1F [Example 6b, (R)-4-((8-chloro-2,5-dioxo-3-(pyridin-2-ylmethyl)-2,3-dihydro-1H-benzo[e][1,4]diazepin-4(5H)-yl)methyl)-2-fluoro-N-(pyridin-2-yl)benzamide]
The IC50 of the first is higher: 100 to 999 nM for the first, < 100 nM for the second. The second is the more potent here.

First: Nc1cccnc1C(=O)Nc1ccc(CN2C(=O)c3ccc(Cl)cc3NC(=O)[C@H]2Cc2ccccn2)cc1 [Example 45a, (R)-3-Amino-N-(4-((8-chloro-2,5-dioxo-3-(pyridin-2-ylmethyl)-2,3-dihydro-1H-benzo[e][1,4]diazepin-4(5H)-yl)methyl)phenyl)picolinamide]
Second: O=C(Nc1ccc(CN2C(=O)c3ccc(Cl)cc3NC(=O)[C@H]2Cc2ccccn2)cc1)c1ncccc1Cl [Example 26g]
The IC50 of the first is lower: < 100 nM for the first, 1000 to 10000 nM for the second. The first is the more potent here.

First: C[C@@H]1C(=O)Nc2cc(Cl)ccc2C(=O)N1Cc1ccc(C(=O)O)c(Br)c1 [Example 1n]
Second: C[C@@H]1C(=O)Nc2cc(Cl)ccc2C(=O)N1Cc1ccc(C(=O)Nc2ccc(C(F)(F)F)cn2)c(Br)c1 [Example 5ar, (R)-2-bromo-4-((8-chloro-3-methyl-2,5-dioxo-2,3-dihydro-1H-benzo[e][1,4]diazepin-4(5H)-yl)methyl)-N-(5-(trifluoromethyl)pyridin-2-yl)benzamide]
The IC50 of the first is higher: 10000 to 35000 nM for the first, 1000 to 10000 nM for the second. The second is the more potent here.

`Cc1ccccc1C[C@@H]1C(=O)Nc2cc(Cl)ccc2C(=O)N1Cc1ccc(C(=O)O)cc1` [Example 3l] and `O=C(O)c1ccc(CN2C(=O)c3ccc(F)cc3NC(=O)[C@H]2Cc2ccc(Cl)c(Cl)c2)cc1` [Example 2g] fall in the same range of IC50: 1000 to 10000 nM for the first, 1000 to 10000 nM for the second.

First: C[C@@H]1C(=O)Nc2cc(Cl)ccc2C(=O)N1Cc1ccc(C(=O)Nc2nc3ccccc3[nH]2)cc1 [Example 5p, (R)-N-(1H-benzo[d]imidazol-2-yl)-4-((8-chloro-3-methyl-2,5-dioxo-2,3-dihydro-1H-benzo[e][1,4]diazepin-4(5H)-yl)methyl)benzamide]
Second: CC(C)C[C@@H]1C(=O)Nc2cc(Cl)ccc2C(=O)N1Cc1ccc(C(=O)Nc2ccccn2)cc1 [Example 35k]
The IC50 of the first is lower: 1000 to 10000 nM for the first, 10000 to 35000 nM for the second.

`CC(C)[C@@H]1C(=O)Nc2cc(Cl)ccc2C(=O)N1Cc1ccc(C(=O)O)cc1` [Example 3k] and `Cn1ccnc1C(=O)c1ccc(CN2C(=O)c3ccc(Cl)cc3NC(=O)[C@H]2Cc2ccccn2)cc1` [Example 31c] fall in the same range of IC50: 100 to 999 nM for the first, 100 to 999 nM for the second.

`CS(=O)(=O)c1ccc(NC(=O)c2ccc(CN3C(=O)c4ccc(Cl)cc4NC(=O)[C@H]3Cc3ccccn3)cc2Cl)nc1` [Example 5av, (R)-2-chloro-4-((8-chloro-2,5-dioxo-3-(pyridin-2-ylmethyl)-2,3-dihydro-1H-benzo[e][1,4]diazepin-4(5H)-yl)methyl)-N-(5-(methylsulfonyl)pyridin-2-yl)benzamide] and `COc1ccc(NC(=O)c2ccc(CN3C(=O)c4ccc(Cl)cc4NC(=O)[C@H]3Cc3ccccn3)cc2OC)nc1` [Example 4cn, (R)-4-((8-chloro-2,5-dioxo-3-(pyridin-2-ylmethyl)-2,3-dihydro-1H-benzo[e][1,4]diazepin-4(5H)-yl)methyl)-2-methoxy-N-(5-methoxypyridin-2-yl)benzamide] cannot be ordered by IC50: < 100 nM for the first, < 100 nM for the second.

Compared with `Cc1cnc(NC(=O)c2ccc(S(=O)(=O)N3Cc4ccc(Cl)cc4NC(=O)[C@H]3Cc3ccccn3)cc2)nc1` [Example 19g, (R)-4-((8-chloro-2-oxo-3-(pyridin-2-ylmethyl)-2,3-dihydro-1H-benzo[e][1,4]diazepin-4(5H)-yl)sulfonyl)-N-(5-methylpyrimidin-2-yl)benzamide], `Cc1cccc(C(=O)c2ccc(CN3C(=O)c4ccc(Cl)cc4NC(=O)[C@H]3Cc3ccccn3)cc2)n1` [Example 11e, (R)-8-chloro-4-(4-(6-methylpicolimoyl)benzyl)-3-(pyridin-2-ylmethyl)-3,4-dihydro-1H-benzo[e][1,4]diazepine-2,5-dione] is higher in IC50: < 100 nM for the first, 100 to 999 nM for the second.

Compared with `CC1(C)CN(C(=O)c2ccc(CN3C(=O)c4ccc(Cl)cc4NC(=O)[C@H]3Cc3ccccn3)cc2Cl)c2ncc(C(F)(F)F)cc21` [Example 5aw, (R)-8-chloro-4-(3-chloro-4-(3,3-dimethyl-5-(trifluoromethyl)-2,3-dihydro-1H-pyrrolo[2,3-b]pyridine-1-carbonyl)benzyl)-3-(pyridin-2-ylmethyl)-3,4-dihydro-1H-benzo[e][1,4]diazepine-2,5-dione], `O=C1Nc2cc(Cl)ccc2C(=O)N(Cc2ccc(C(=O)N3CCc4cccnc43)c(F)c2)[C@@H]1Cc1ccccn1` [Example 6e, (R)-8-chloro-4-(4-(2,3-dihydro-1H-pyrrolo[2,3-b]pyridine-1-carbonyl)-3-fluorobenzyl)-3-(pyridin-2-ylmethyl)-3,4-dihydro-1H-benzo[e][1,4]diazepine-2,5-dione] is higher in IC50: < 100 nM for the first, 100 to 999 nM for the second.

Compared with `O=C(Nc1ccccn1)c1ccc(CN2C(=O)c3ccc(Br)cc3NC(=O)[C@H]2Cc2cccnc2)cc1` [Example 4bd, (R)-4-((8-bromo-2,5-dioxo-3-(pyridin-3-ylmethyl)-2,3-dihydro-1H-benzo[e][1,4]diazepin-4(5H)-yl)methyl)-N-(pyridin-2-yl)benzamide], `Cc1ccc(S(=O)(=O)NC(=O)c2ccc(CN3C(=O)c4ccc(Cl)cc4NC(=O)[C@H]3Cc3cccnc3)cc2)cc1` [Example 15e, (R)-4-((8-chloro-2,5-dioxo-3-(pyridin-3-ylmethyl)-2,3-dihydro-1H-benzo[e][1,4]diazepin-4(5H)-yl)methyl)-N-tosylbenzamide] is higher in IC50: < 100 nM for the first, 1000 to 10000 nM for the second.

First: C[C@@H]1C(=O)Nc2cc(Cl)ccc2C(=O)N1Cc1ccc(C(=O)Nc2ccc(N3CCN(C(=O)OC(C)(C)C)CC3)cn2)cc1 [Example 4bg, (R)-tert-butyl 4-(6-(4-((8-chloro-3-methyl-2,5-dioxo-2,3-dihydro-1H-benzo[e][1,4]diazepin-4(5H)-yl)methyl)benzamido)pyridin-3-yl)piperazine-1-carboxylate]
Second: Cc1ccc(NC(=O)c2ccc(CN3C(=O)c4ccc(NC(=O)c5ccccn5)cc4NC(=O)[C@H]3C)cc2)nc1 [Example 18d, (R)-N-(3-methyl-4-(4-((5-methylpyridin-2-yl)carbamoyl)benzyl)-2,5-dioxo-2,3,4,5-tetrahydro-1H-benzo[e][1,4]diazepin-8-yl)picolinamide]
The IC50 of the first is lower: 100 to 999 nM for the first, 10000 to 35000 nM for the second.

same assay, conditions: read-out: TcdB UDP-Glucose hydrolysis activity (IC50, coded); UDP-Glucose hydrolysis assay, fluorescence polarization

With `O=C1Nc2cc(Cl)ccc2C(=O)N(C[C@H]2CC[C@H](C(=O)c3cccn4ccnc34)CC2)[C@@H]1Cc1ccccn1` [Example 34b] the IC50 was < 100 nM.
